Among the data in US9150592B2, “Heterocyclic nuclear hormone receptor modulators” (AbbVie Inc., priority 2012, dated 2015) are IC50 and Emax values, retold here.

Assay [1] has as its target T1, Glucocorticoid Receptor (GR) (Homo sapiens, UniProt P04150).
T1 construct: purchased Invitrogen P2893
T1 sequence (P04150 1-777): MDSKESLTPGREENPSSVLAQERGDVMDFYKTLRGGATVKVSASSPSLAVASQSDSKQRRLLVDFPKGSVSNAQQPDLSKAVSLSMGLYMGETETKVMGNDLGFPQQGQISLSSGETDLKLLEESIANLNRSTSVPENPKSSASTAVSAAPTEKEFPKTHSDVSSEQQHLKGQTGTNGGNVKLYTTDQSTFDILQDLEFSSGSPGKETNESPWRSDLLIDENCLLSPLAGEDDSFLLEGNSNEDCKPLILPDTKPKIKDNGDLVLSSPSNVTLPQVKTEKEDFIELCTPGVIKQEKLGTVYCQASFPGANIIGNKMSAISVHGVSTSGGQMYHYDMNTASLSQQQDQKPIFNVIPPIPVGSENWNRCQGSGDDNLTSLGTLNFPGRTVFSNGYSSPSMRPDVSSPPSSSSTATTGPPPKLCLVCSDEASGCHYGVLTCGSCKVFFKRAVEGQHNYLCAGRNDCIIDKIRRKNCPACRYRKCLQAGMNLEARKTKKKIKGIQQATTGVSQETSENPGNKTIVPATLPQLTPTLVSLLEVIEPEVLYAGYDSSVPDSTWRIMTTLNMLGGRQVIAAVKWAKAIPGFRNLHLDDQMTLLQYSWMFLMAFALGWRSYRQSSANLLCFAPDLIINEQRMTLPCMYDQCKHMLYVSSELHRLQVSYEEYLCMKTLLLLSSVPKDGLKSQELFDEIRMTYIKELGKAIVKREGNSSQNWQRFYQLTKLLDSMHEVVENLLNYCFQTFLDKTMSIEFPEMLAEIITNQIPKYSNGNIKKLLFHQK
Nature of the assay: GR Fluorescence Polarization Assay (PolarScreen Glucocorticoid Receptor Competitor Assay, Red). The following applies: IC50 class ranges, read-out: GR binding. An outline of the steps: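 Competitive fluorescence-polarization assay using a red fluorescent glucocorticoid tracer with human GR in kit buffer. Compounds serially diluted 1:4 in DMSO, incubated with tracer and GR overnight at 4° C, then polarization read.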
A general note: Fluorescence polarisation rises when a labelled molecule tumbles more slowly, as on binding a larger partner.

Assay [2] has as its system IL-6 in A549 cells stimulated with IL-1β. Nature of the assay: A549 Cell Assay to Measure Inflammation Markers (inhibition of IL-1β-induced IL-6). It is filed as cell-based. The conditions noted are these: Homo sapiens, A549, A549 Cell Assay to Measure Inflammation Markers; intrinsic activity, Emax class ranges. A digest of the protocol: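 Compound pre-incubated with A549 cells 1 h at 37 °C, then stimulated with IL-1β (1 ng/mL final, 0.1% DMSO). Supernatant IL-6 quantified by MSD immunoassay after a further incubation. IC50 and Emax derived.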

For the compound `CCn1nc(-c2ccccn2)c2c1N[C@@H](C)CS[C@H]2c1ccc(C#CC(C)(C)O)cc1C` (single isomer, unassigned) [M.32, 4-(4-(1-ethyl-7-methyl-3-(pyridin-2-yl)-4,6,7,8-tetrahydro-1H-pyrazolo[3,4-e][1,4]thiazepin-4-yl)-3-methylphenyl)-2-methylbut-3-yn-2-ol], the IC50 in assay [1] was less than 0.1 µM. The Emax (usually the greatest response seen or fitted, relative to the assay's reference) in assay [2] was more than 70%.

For `CCn1nc(-c2ccccn2)c2c1N[C@H](C)CS[C@H]2c1ccc(CCCO)cc1C` (single isomer, unassigned) [M.35, 3-(4-(1-ethyl-7-methyl-3-(pyridin-2-yl)-4,6,7,8-tetrahydro-1H-pyrazolo[3,4-e][1,4]thiazepin-4-yl)-3-methylphenyl)propan-1-ol], in assay [1], the IC50 was less than 0.1 µM. The compound further yielded an Emax in assay [2] of more than 70%.

`CCn1nc(-c2ccccn2)c2c1N[C@@H](C)CS[C@H]2c1ccc(CCCO)cc1C` (single isomer, unassigned) [M.36, 3-(4-(1-ethyl-7-methyl-3-(pyridin-2-yl)-4,6,7,8-tetrahydro-1H-pyrazolo[3,4-e][1,4]thiazepin-4-yl)-3-methylphenyl)propan-1-ol]: the IC50 in assay [1] was less than 0.1 µM. Moreover, the Emax in assay [2] was more than 60%.

On to `CCn1nc(-c2ccccn2)c2c1N[C@@H](C)CS[C@H]2c1ccc(CCC(C)(C)O)cc1C` (single isomer, unassigned) [M.39, 4-(4-(1-ethyl-7-methyl-3-(pyridin-2-yl)-4,6,7,8-tetrahydro-1H-pyrazolo[3,4-e][1,4]thiazepin-4-yl)-3-methylphenyl)-2-methylbutan-2-ol], for which the IC50 in assay [1] is less than 0.1 µM. Further, the Emax in assay [2] was more than 70%.

In the case of `CCn1nc(-c2ccccn2)c2c1N[C@H](C)CS[C@H]2c1ccc(CCC(C)(C)O)cc1C` (single isomer, unassigned) [M.40, 4-(4-(1-ethyl-7-methyl-3-(pyridin-2-yl)-4,6,7,8-tetrahydro-1H-pyrazolo[3,4-e][1,4]thiazepin-4-yl)-3-methylphenyl)-2-methylbutan-2-ol], the IC50 in assay [1] was less than 0.1 µM. The same compound returned an Emax in assay [2] of more than 70%.

Turning to `Cc1cc(CCC(C)(C)O)ccc1[C@@H]1SC[C@H](C)Nc2c1c(-c1ccccn1)nn2C` (single isomer, unassigned) [M.42, 4-(4-(1,7-dimethyl-3-(pyridin-2-yl)-4,6,7,8-tetrahydro-1H-pyrazolo[3,4-e][1,4]thiazepin-4-yl)-3-methylphenyl)-2-methylbutan-2-ol], the IC50 in assay [1] is less than 0.1 µM. In assay [2], this compound registered an Emax of more than 60%.

As to `Cc1cc(CCC(C)(C)O)ccc1[C@@H]1SC[C@@H](C)Nc2c1c(-c1ccccn1)nn2C` (single isomer, unassigned) [M.44, 4-(4-(1,7-dimethyl-3-(pyridin-2-yl)-4,6,7,8-tetrahydro-1H-pyrazolo[3,4-e][1,4]thiazepin-4-yl)-3-methylphenyl)-2-methylbutan-2-ol], the IC50 in assay [1] was less than 0.1 µM. The compound also gave an Emax in assay [2] of more than 60%.

Take `CCn1nc(-c2ccccn2)c2c1N[C@H](C)CS[C@H]2c1ccc(C(N)=O)cc1C` (single isomer, unassigned) [M.46, 4-(1-ethyl-7-methyl-3-(pyridin-2-yl)-4,6,7,8-tetrahydro-1H-pyrazolo[3,4-e][1,4]thiazepin-4-yl)-3-methylbenzamide]: in assay [1], the IC50 is less than 0.1 µM. Moreover, the Emax in assay [2] was more than 50%.

For `CCn1nc(-c2ccccn2)c2c1N[C@@H](C)CS[C@H]2c1ccc(C(N)=O)cc1C` (single isomer, unassigned) [M.48, 4-(1-ethyl-7-methyl-3-(pyridin-2-yl)-4,6,7,8-tetrahydro-1H-pyrazolo[3,4-e][1,4]thiazepin-4-yl)-3-methylbenzamide], in assay [1], the IC50 is less than 0.1 µM. The compound also had an Emax in assay [2] of more than 50%.

As to `Cc1cc(CCCO)ccc1[C@@H]1SC[C@@H](C)Nc2c1c(-c1ccccn1)nn2C` (single isomer, unassigned) [M.51, 3-(4-(1,7-dimethyl-3-(pyridin-2-yl)-4,6,7,8-tetrahydro-1H-pyrazolo[3,4-e][1,4]thiazepin-4-yl)-3-methylphenyl)propan-1-ol], the IC50 in assay [1] was less than 0.1 µM. Moreover, the Emax in assay [2] was less than 50%.

As for `Cc1cc(CCCO)ccc1[C@@H]1SC[C@H](C)Nc2c1c(-c1ccccn1)nn2C` (single isomer, unassigned) [M.52, 3-(4-(1,7-dimethyl-3-(pyridin-2-yl)-4,6,7,8-tetrahydro-1H-pyrazolo[3,4-e][1,4]thiazepin-4-yl)-3-methylphenyl)propan-1-ol], in assay [1], the IC50 was less than 0.1 µM. The compound also registered an Emax in assay [2] of less than 50%.

As for `Cc1cc(C#CCCO)ccc1[C@@H]1SC[C@H](C)Nc2c1c(-c1ccccn1)nn2C` (single isomer, unassigned) [M.54, 4-(4-(1,7-dimethyl-3-(pyridin-2-yl)-4,6,7,8-tetrahydro-1H-pyrazolo[3,4-e][1,4]thiazepin-4-yl)-3-methylphenyl)but-3-yn-1-ol], the IC50 in assay [1] is less than 0.1 µM. For the same compound, the Emax in assay [2] is less than 50%.

Turning to `Cc1cc(C#CCCO)ccc1[C@@H]1SC[C@@H](C)Nc2c1c(-c1ccccn1)nn2C` (single isomer, unassigned) [M.55, 4-(4-(1,7-dimethyl-3-(pyridin-2-yl)-4,6,7,8-tetrahydro-1H-pyrazolo[3,4-e][1,4]thiazepin-4-yl)-3-methylphenyl)but-3-yn-1-ol], the IC50 in assay [1] was less than 0.1 µM. In assay [2], the Emax is less than 50%.

For `Cc1cc(C(=O)Nc2cccnc2C)ccc1[C@@H]1SC[C@@H](C)Nc2c1c(-c1ccncn1)nn2C` (single isomer, unassigned) [M.57, 4-(1,7-dimethyl-3-(pyrimidin-4-yl)-4,6,7,8-tetrahydro-1H-pyrazolo[3,4-e][1,4]thiazepin-4-yl)-3-methyl-N-(2-methylpyridin-3-yl)benzamide], the IC50 in assay [1] was less than 0.1 µM. In assay [2], this compound returned an Emax of more than 70%.

Take `Cc1cc(C(=O)Nc2cccnc2C)ccc1[C@@H]1SC[C@H](C)Nc2c1c(-c1ccncn1)nn2C` (single isomer, unassigned) [M.58, 4-(1,7-dimethyl-3-(pyrimidin-4-yl)-4,6,7,8-tetrahydro-1H-pyrazolo[3,4-e][1,4]thiazepin-4-yl)-3-methyl-N-(2-methylpyridin-3-yl)benzamide]: in assay [1], the IC50 was less than 0.1 µM. For the same compound, the Emax in assay [2] is more than 70%.

As to `CCn1nc(-c2ccccn2)c2c1NCCSC2c1ccc(C(=O)Nc2cccnc2C)cc1C` (single isomer, unassigned) [M.62, 4-(1-ethyl-3-(pyridin-2-yl)-4,6,7,8-tetrahydro-1H-pyrazolo[3,4-e][1,4]thiazepin-4-yl)-3-methyl-N-(2-methylpyridin-3-yl)benzamide], the IC50 in assay [1] was less than 0.1 µM. In addition, the Emax in assay [2] was more than 70%.

As for `CCn1nc(-c2ccccn2)c2c1NCCSC2c1ccc(C(=O)Nc2cccnc2C)cc1C(F)(F)F` (single isomer, unassigned) [M.68, 4-(1-ethyl-3-(pyridin-2-yl)-4,6,7,8-tetrahydro-1H-pyrazolo[3,4-e][1,4]thiazepin-4-yl)-N-(2-methylpyridin-3-yl)-3-(trifluoromethyl)benzamide], in assay [1], the IC50 lay within 1 to 10 µM. Further, the Emax in assay [2] is more than 70%.

As to `Cc1cc(C#CCO)ccc1[C@@H]1SC[C@@H](C)Nc2c1c(-c1ccccn1)nn2C` (single isomer, unassigned) [M.70, 3-(4-(1,7-dimethyl-3-(pyridin-2-yl)-4,6,7,8-tetrahydro-1H-pyrazolo[3,4-e][1,4]thiazepin-4-yl)-3-methylphenyl)prop-2-yn-1-ol], in assay [1], the IC50 is less than 0.1 µM. The same compound had an Emax in assay [2] of less than 50%.
